Where two headings read alike, the source gives them in different places.
What was measured:
[1] = tested on: P. viticola cellulose synthase 2 (PvCesA2), cytoplasmic portion aa 331 to 790; type: binding, Plasmopara viticola; details: growth on selective media lacking adenine or histidine, 10 mM 3-AT; sequence found at least three times among 30 colonies
[2] = tested on: Bacillus amyloliquefaciens (subsp. plantarum) strain D 747; type: cell-based; details: 100 μM and 200 μM in LB medium, 37 °C, OD600 every hour for 5 h, three biological replicates
[3] = tested on: Erysiphe necator; type: cell-based; details: 200 μM and 400 μM, young grapevine leaves, 14 dpi
[4] = tested on: Agrobacterium tumefaciens; type: cell-based; details: 100 μM and 200 μM in LB medium, 28 °C, OD600 every hour for 5 h, three biological replicates
[5] = tested on: Phytophthora infestans; type: cell-based; details: 100 μM and 200 μM in pea agar medium, 20 °C, radial growth at 4, 5 and 7 dpi
[6] = tested on: Plasmopara viticola; type: cell-based; details: 5 and 7 dpi; for effect on P. viticola disease severity on leaf disks: 200 μM peptide co-inoculated with sporangia, Pinot noir leaf disks, ten replicates from two experiments
[7] = tested on: Plasmopara viticola; type: cell-based
[8] = tested on: Plasmopara viticola zoospores; type: cell-based; details: 200 μM, leaf disks, 6 h in the dark at 22 °C, SEM
[9] = tested on: Escherichia coli; type: cell-based; details: 100 μM and 200 μM in LB medium, 37 °C, OD600 every hour for 5 h, three biological replicates
[10] = tested on: Pinot noir leaves, photosystem II; details: grapevine leaves, 7 days after treatment, average ± SD of 3 measurements
[11] = tested on: Plasmopara viticola; type: in vivo; details: for disease severity of plants: average ± standard error
[12] = tested on: HKC8 cells; details: 400 μM, HKC8 at 1 K, 3 K and 6 K cells/100 μl, four biological replicates

Substance: H-RLTAQCRL-OH [NoPv1, peptide aptamer of 8 L-amino acid residues, RLTAQCRL, isolated with PvCesA2 as bait]
- peptide aptamers interacting with PvCesA2 (yeast two-hybrid library screening) [1]: interacting with PvCesA2
- growth inhibition of B. amyloliquefaciens [2]: not able to inhibit the growth
- effect on E. necator disease severity on leaves [3]: not able to reduce the disease severity on leaves
- growth inhibition of A. tumefaciens [4]: not able to inhibit the growth
- inhibition of P. infestans growth in vitro [5]: able to inhibit P. infestans growth in vitro
- effect on P. viticola disease severity on leaf disks [6]: completely inhibit
- anti-oomycete activity on leaf disks ([6]; co-inoculation, 20 μM): no anti-oomycete activity
- P. viticola disease severity on leaf disks ([6]; co-inoculation, 50 μM): almost half of the control sample
- percentage of leaf disk area covered by P. viticola sporulation ([6]; co-inoculation, concentrations equal or higher than 100 μM): below 10%
- treatment efficacy, preventive application ([7]; 400 μM applied 7 days before inoculation (-7 d), leaf disks): effective in suppressing P. viticola infection
- treatment efficacy, post-inoculation (curative) application ([7]; 400 μM applied +1 h to +2 d after P. viticola inoculation, leaf disks): efficacy decreased very rapidly
- Disease severity ([7]; 400 μM sprayed +1 h after inoculation, leaf disks, 7 dpi, mean of ten replicates): 18.00%
- Disease severity ([7]; 400 μM sprayed +1 d after inoculation, leaf disks, 7 dpi, mean of ten replicates): 23.76%
- Disease severity ([7]; 400 μM sprayed +2 d after inoculation, leaf disks, 7 dpi, mean of ten replicates): 36.00%
- Disease severity ([7]; 400 μM sprayed -2 h before inoculation, leaf disks, 7 dpi, mean of ten replicates): 1.58%
- Disease severity ([7]; 400 μM sprayed -6 h before inoculation, leaf disks, 7 dpi, mean of ten replicates): 5.62%
- Disease severity ([7]; 400 μM sprayed -1 d before inoculation, leaf disks, 7 dpi, mean of ten replicates): 6.17%
- Disease severity ([7]; 400 μM sprayed -2 d before inoculation, leaf disks, 7 dpi, mean of ten replicates): 3.96%
- Disease severity ([7]; 400 μM sprayed -5 d before inoculation, leaf disks, 7 dpi, mean of ten replicates): 2.23%
- Disease severity ([7]; 400 μM sprayed -7 d before P. viticola inoculation, leaf disks, 7 dpi, mean of ten replicates from two experiments): 9.72%
- P. viticola severity on leaf disks after nebulization ([7]; 400 μM, Potter Precision Spray Tower, 7 dpi): reduction of P. viticola severity
- Disease severity ([7]; 400 μM, co-inoculation 0 h, leaf disks, 7 dpi, mean of ten replicates): 2.88%
- efficacy on leaf disks after nebulization compared with copper fungicide ([7]; 800 μM vs Kocide 2000 1.42 g l^-1, Potter Precision Spray Tower): as effective as the copper-based fungicide Kocide 2000
- lowest concentration that maximises the efficacy against P. viticola ([7]; nebulization on leaf disks, Potter Precision Spray Tower): 400 µM
- zoospores in which a germ tube primordium could be detected ([8]; 5 zoospores out of 160): 3.12%
- P. viticola germ tube formation ([8]; n = 160): unable to develop any germ tube
- growth inhibition of E. coli [9]: not able to inhibit the growth
- FV/FM, maximum quantum yield of photosystem II ([10]; 400 µM (P1)): 0.73 ± 0.01
- Y(II), effective quantum yield of photosystem II ([10]; 400 µM (P1)): 0.33 ± 0.02
- FV/FM, maximum quantum yield of photosystem II ([10]; 1 mM (P2)): 0.74 ± 0.01
- Y(II), effective quantum yield of photosystem II ([10]; 1 mM (P2)): 0.33 ± 0.01
- disease severity of plants ([11]; 400 μM sprayed immediately before P. viticola inoculation, greenhouse Pinot noir plants): 27.3 ± 5.2%
- disease severity of plants ([11]; 800 μM sprayed immediately before P. viticola inoculation, greenhouse plants): 26.2 ± 4.2%
- NoPv1 efficacy compared to control plants ([11]; 1 mM applied at -7 d, -2 d and 0 h, greenhouse plants, 7 dpi): higher than 60%
- Disease severity ([11]; 1 mM sprayed -7 d before inoculation, greenhouse plants, 7 dpi, mean of ten replicates from two experiments): 15.89%
- disease severity of plants ([11]; 1 mM sprayed immediately before P. viticola inoculation, greenhouse plants): 20.8 ± 2.4%
- disease severity of plants ([11]; 2 mM sprayed immediately before P. viticola inoculation, greenhouse plants): 21.1 ± 4.2
- lowest concentration showing a P. viticola severity comparable to the copper treatment ([11]; greenhouse plants, sprayed immediately before inoculation): 1 mM
- cell viability (MTT, absorbance at 570 nm) vs control ([12]; DMEM-F12, 24 h): No significant differences between control and treated samples
- cell viability (MTT, absorbance at 570 nm) vs control ([12]; DMEM-F12, 48 h): cytotoxic effects could only be observed at 1 K cell density

Substance: H-MLLHSELC-OH [NoPv3, 8 a.a. peptide aptamer identified by yeast two-hybrid assay using PvCesA2 as bait]
- peptide aptamers interacting with PvCesA2 (yeast two-hybrid library screening) [1]: interacting with PvCesA2
- effect on P. viticola disease severity on leaf disks [6]: no effect

Substance: H-LFPFVSSM-OH [NoPv2, 8 a.a. peptide aptamer identified by yeast two-hybrid assay using PvCesA2 as bait]
- peptide aptamers interacting with PvCesA2 (yeast two-hybrid library screening) [1]: interacting with PvCesA2
- effect on P. viticola disease severity on leaf disks [6]: intermediate
